Converted amounts (≈) assume the structure as drawn. Where two headings read alike, the source gives them in different places.
Key:
[1] = tested on: A. baumannii ATCC 19606; assay: MIC against A. baumannii ATCC 19606, CO-ADD; format: cell-based; details: Acinetobacter baumannii
Excerpt: (§1) Antimicrobial evaluation of the pure compounds against A. baumannii ATCC 19606, Candida albicans ATCC 90028, Cryptococcus neoformans ATCC 208821, E. coli ATCC 25922, K. pneumoniae ATCC 700603, P. aeruginosa ATCC 27853, and S. aureus ATCC 43300 (MRSA) was undertaken at the Community for Open Antimicrobial Drug Discovery at The University of Queensland (St. Lucia, Queensland, Australia) according to standard protocols as previously described.

[2] = tested on: E. coli ATCC 25922; assay: MIC against E. coli ATCC 25922, CO-ADD; format: cell-based; details: Escherichia coli
Excerpt: as §1

[3] = tested on: Mycotypha microspora; parameters: method as in PMID 25312126; details: cited from earlier work
[4] = tested on: K. pneumoniae ATCC 700603; assay: MIC against K. pneumoniae ATCC 700603, CO-ADD; format: cell-based; details: Klebsiella pneumoniae
Excerpt: as §1

[5] = tested on: C. albicans ATCC 90028; assay: MIC against C. albicans ATCC 90028, CO-ADD; format: cell-based, Candida albicans; details: for MIC: Candida albicans
Excerpt: as §1

[6] = tested on: C. neoformans ATCC 208821; assay: MIC against C. neoformans ATCC 208821, CO-ADD; format: cell-based; details: Cryptococcus neoformans
Excerpt: as §1

[7] = tested on: S. aureus ATCC 43300 (MRSA); assay: MIC against S. aureus ATCC 43300 (MRSA), CO-ADD; format: cell-based, Staphylococcus aureus; details: for MIC: Staphylococcus aureus, read-out: MIC S. a
Excerpt: as §1

[8] = tested on: P. aeruginosa ATCC 27853; assay: MIC against P. aeruginosa ATCC 27853, CO-ADD; format: cell-based; details: Pseudomonas aeruginosa
Excerpt: as §1

[9] = tested on: Elymus repens; parameters: method as in PMID 25312126; details: cited from earlier work
[10] = Cytotoxicity on HEK293 human embryonic kidney cells
Experimental: (§2) All compounds were also evaluated for their cytotoxicity against human embryonic kidney cells (HEK-293) and any haemolytic activity against human red blood cells.

[11] = tested on: Sclerotinia sclerotiorum; parameters: method as in PMID 19333565, doi:10.1590/S0100-40422007000700012; details: cited from earlier work
[12] = tested on: M. marinum BSG101; assay: Antimycobacterial bioluminescence assay of pure compounds, M. marinum; details: Mycobacterium marinum, BSG101, 72 h
Experimental: Antimicrobial evaluation against M. abscessus and M. marinum was undertaken using in-house assays with the bioluminescent derivatives M. abscessus BSG301 [63] and M. marinum BSG101 [64]. […] Specifically, mycobacterial cultures were grown with shaking at 200 rpm in Middlebrook 7H9 broth (Fort Richard, Auckland, New Zealand) supplemented with 10% Middlebrook ADC enrichment media (Fort Richard, Auckland, New Zealand), 0.4% glycerol (Sigma-Aldrich, St. Louis, MO, USA), and 0.05% tyloxapol (Sigma-Aldrich, St. Louis, MO, USA). M. abscessus was grown at 37 °C and M. marinum at 28 °C. Cultures were grown until they reached the stationary phase (approximately 3–5 days for M. abscessus BSG301 and 7–10 days for M. marinum BSG101) and then diluted in MHB supplemented with 10% Middlebrook ADC enrichment media and 0.05% tyloxapol to give an optical density at 600 nm (OD600) of 0.001, which is the equivalent of ~10^6 bacteria per mL. Pure compounds were dissolved in DMSO and added to the wells of a black 96-well plate (Nunc, Thermo Scientific, Waltham, MA, USA) at doubling dilutions with a maximum concentration of 128 mg/mL. […] Bacterial luminescence was measured at regular intervals over 72 h using a Victor X-3 luminescence plate reader with an integration time of 1 s. […]

[13] = tested on: Mycobacteria tuberculosis; parameters: method as in PMID 19333565, doi:10.1590/S0100-40422007000700012; details: cited from earlier work
[14] = tested on: B. subtilis; parameters: method as in PMID 19333565, doi:10.1590/S0100-40422007000700012; details: cited from earlier work
[15] = tested on: S. aureus; parameters: method as in PMID 19333565, doi:10.1590/S0100-40422007000700012; details: cited from earlier work
[16] = tested on: S. cerevisiae; parameters: method as in PMID 19333565, doi:10.1590/S0100-40422007000700012; details: cited from earlier work
[17] = tested on: human red blood cells; assay: Haemolytic activity on human red blood cells; details: concentration of compound at 10% haemolytic activity on human red blood cells; mean of two experiments
[18] = tested on: Aspergillus flavus; parameters: method as in PMID 4629229, PMID 9797310, PMID 19801865; details: cited from earlier work
[19] = tested on: E. coli; parameters: method as in PMID 4629229; details: disk diffusion assays; cited from earlier work
[20] = in vitro; details: human
Experimental: as §2

[21] = tested on: human red blood cells
[22] = tested on: Bacillus subtilis; parameters: method as in PMID 4629229; details: disk diffusion assays; cited from earlier work
[23] = tested on: Microbotryum violaceum; parameters: method as in doi:10.1002/ejoc.200800404; details: agar diffusion assay; cited from earlier work
[24] = tested on: Bacillus megaterium; parameters: method as in doi:10.1002/ejoc.200800404; details: agar diffusion assay; cited from earlier work
[25] = tested on: E. coli; parameters: method as in doi:10.1002/ejoc.200800404; details: agar diffusion assay; cited from earlier work
[26] = tested on: HEK293 human embryonic kidney cells
Experimental: as §2

[27] = tested on: Microsporum gypseum; parameters: method as in PMID 4629229, PMID 9797310, PMID 19801865; details: cited from earlier work
[28] = tested on: Aspergillus fumigatus; parameters: method as in PMID 4629229, PMID 9797310, PMID 19801865; details: cited from earlier work
[29] = ATCC19606, A. baumanii ATCC 19606, mean of two experiments, read-out: MIC A. b
[30] = ATCC25922, E. coli ATCC 25922, mean of two experiments, read-out: MIC E. c
[31] = ATCC700603, K. pneumoniae ATCC 700603, mean of two experiments, read-out: MIC K. p
[32] = ATCC90028, C. albicans ATCC 90028, mean of two experiments, read-out: MIC C. a
[33] = ATCC208821, C. neoformans ATCC 208821, mean of two experiments, read-out: MIC C. n
[34] = S. aureus ATCC 43300 (MRSA), mean of two experiments
[35] = ATCC27853, P. aeruginosa ATCC 27853, mean of two experiments, read-out: MIC P. a

## C/C=C/c1cc2c(c(=O)o1)C(=O)[C@@H](O)[C@H](C)O2 [compound 2, radicinin]
[1]; ATCC19606, read-out: MIC A. b
  MIC: > 135 µM
[2]; ATCC25922, read-out: MIC E. c
  MIC: > 135 µM
[3]
  antifungal activity against Mycotypha microspora: moderate antifungal activity
[4]; ATCC700603, read-out: MIC K. p
  MIC: > 135 µM
[5]; ATCC90028, read-out: MIC C. a
  MIC: > 135 µM
[6]; ATCC208821, read-out: MIC C. n
  MIC: > 135 µM
[7]
  MIC: > 135 µM
[8]; ATCC27853, read-out: MIC P. a
  MIC: > 135 µM
[9]
  antifungal activity against Elymus repens: moderate antifungal activity

## CN[C@H](CC(C)C)C(=O)N[C@H]1C(=O)N[C@@H](CC(N)=O)C(=O)N[C@H]2C(=O)N[C@H]3C(=O)N[C@H](C(=O)N[C@H](C(=O)O)c4cc(O)cc(O)c4-c4cc3ccc4O)[C@H](O)c3ccc(c(Cl)c3)Oc3cc2cc(c3O[C@@H]2O[C@H](CO)[C@@H](O)[C@H](O)[C@H]2O[C@H]2C[C@](C)(N)[C@H](O)[C@H](C)O2)Oc2ccc(cc2Cl)[C@H]1O [vancomycin, reference compound]
[7]
  MIC: 0.7 µM (≈ 1.01 µg/mL)

## CC/C(=C(\c1ccccc1)c1ccc(OCCN(C)C)cc1)c1ccccc1 [tamoxifen, reference compound]
[10]; HEK-293 human embryonic kidney cells
  IC50: 24 µM

## C[C@H]1CCC/C=C/C(=O)c2c(O)cc(O)cc2CC(=O)O1 [compound 6, dehydro-curvularin]
[1]; ATCC19606, read-out: MIC A. b
  MIC: > 110 µM
[11]
  antimicrobial activity against Sclerotinia sclerotiorum: inactive
[2]; ATCC25922, read-out: MIC E. c
  MIC: > 110 µM
[12]
  MIC: 32 µg/mL (≈ 110 µM)
[4]; ATCC700603, read-out: MIC K. p
  MIC: > 110 µM
[13]
  MIC against M. tuberculosis: 40 µM (≈ 11.6 µg/mL)
  antimicrobial activity against Mycobacteria tuberculosis: active
[14]
  antimicrobial activity against B. subtilis: inactive
[10]
  CC50: 1.27 µM
[15]
  antimicrobial activity against S. aureus: inactive
[5]; ATCC90028, read-out: MIC C. a
  MIC: > 110 µM
[6]; ATCC208821, read-out: MIC C. n
  MIC: > 110 µM
[7]
  MIC: > 110 µM
[16]
  antimicrobial activity against S. cerevisiae: inactive
[17]
  HC10: >110 µM
[8]; ATCC27853, read-out: MIC P. a
  MIC: > 110 µM

## C[C@@H]1C[C@H]2O[C@@H]2/C=C\C=C\C(=O)Cc2c(Cl)c(O)cc(O)c2C(=O)O1 [compound 10, radicicol]
[1]; [29]
  MIC: > 88 µM
[18]
  activity against Aspergillus flavus: activity
[2]; [30]
  MIC: > 88 µM
[12]
  MIC: 64 µg/mL (≈ 175 µM)
[4]; [31]
  MIC: > 88 µM
[19]
  activity against E. coli: none of the compounds were active
[5]
  antifungal activity against C. albicans: moderate antifungal activity
[5]; [32]
  MIC: 44 µM (≈ 16.1 µg/mL)
[20]
  CC50: > 88 µM
[21]; human
  HC10: >88 µM
[6]; [33]
  MIC: > 88 µM
[22]
  activity against B. subtilis: active
[7]; [34]
  MIC: > 88 µM
[8]; [35]
  MIC: > 88 µM

## CC1CCCCCC(=O)c2c(O)cc(O)cc2CC(=O)O1 (stereo not drawn) [compound 5, curvularin]
[1]; [29]
  MIC: > 109 µM
[11]
  antimicrobial activity against Sclerotinia sclerotiorum: inactive
[2]; [30]
  MIC: > 109 µM
[4]; [31]
  MIC: > 109 µM
[13]
  antimicrobial activity against Mycobacteria tuberculosis: inactive
[19]
  activity against E. coli: none of the compounds were active
[14]
  antimicrobial activity against B. subtilis: inactive
[15]
  antimicrobial activity against S. aureus: inactive
[5]; [32]
  MIC: > 109 µM
[6]; [33]
  MIC: > 109 µM
[7]; [34]
  MIC: > 109 µM
[16]
  antimicrobial activity against S. cerevisiae: inactive
[8]; [35]
  MIC: > 109 µM

## C[C@@H]1CCC(=O)CCC(=O)O[C@H](C)CC[C@H](O)/C=C/C(=O)O1 [compound 4, tetrahydropyrenophorin]
[1]; [29]
  MIC: > 102 µM
[23]
  antifungal activity against Microbotryum violaceum: antifungal activity
[24]
  antibacterial activity against Bacillus megaterium: moderate antibacterial activity
[2]; [30]
  MIC: > 102 µM
[4]; [31]
  MIC: > 102 µM
[25]
  antibacterial activity against E. coli: moderate antibacterial activity
[5]; [32]
  MIC: > 102 µM
[6]; [33]
  MIC: > 102 µM
[7]; [34]
  MIC: > 102 µM
[8]; [35]
  MIC: > 102 µM

## CC(O)CCC(O)/C=C/C(=O)O (stereo not drawn) [compound 1, (E)-4,7-dihydroxyoct-2-enoic acid]
[1]; [29]
  MIC: > 184 µM
[2]; [30]
  MIC: > 184 µM
[4]; [31]
  MIC: > 184 µM
[5]; [32]
  MIC: > 184 µM
[6]; [33]
  MIC: > 184 µM
[26]
  cytotoxicity: no cytotoxic or haemolytic activity
[7]; [34]
  MIC: > 184 µM
[8]; [35]
  MIC: > 184 µM

## C/C1=C\C[C@]2(C)C(=O)C(O)=C([C@H](C)CO)[C@H]2C/C=C(\C)[C@@H](O)CC/C(C)=C/CC1 [compound 3, terpestacin]
[1]; [29]
  MIC: > 79 µM
[2]; [30]
  MIC: > 79 µM
[4]; [31]
  MIC: > 79 µM
[5]; [32]
  MIC: > 79 µM
[6]; [33]
  MIC: > 79 µM
[7]; [34]
  MIC: > 79 µM
[8]; [35]
  MIC: > 79 µM

## OC(Cn1cncn1)(Cn1cncn1)c1ccc(F)cc1F [fluconazole, reference compound]
[5]; [32]
  MIC: 0.4 µM (≈ 0.123 µg/mL)
[6]; [33]
  MIC: 26 µM (≈ 7.96 µg/mL)

## C[C@H]1CCC/C=C/[C@@H]2C[C@H](O)C[C@H]2[C@H](O)/C=C/C(=O)O1 [compound 8, brefeldin A]
[1]; [29]
  MIC: > 114 µM
[2]; [30]
  MIC: > 114 µM
[4]; [31]
  MIC: > 114 µM
[19]
  activity against E. coli: none of the compounds were active
[10]
  CC50: 0.89 µM
[5]
  antifungal activity against C. albicans: moderate antifungal activity
[5]; [32]
  MIC: 57 µM (≈ 16 µg/mL)
[6]; [33]
  MIC: > 114 µM
[7]; [34]
  MIC: > 114 µM
[17]
  HC10: >114 µM
[8]; [35]
  MIC: > 114 µM
[27]
  activity against Microsporum gypseum: activity
[28]
  activity against Aspergillus fumigatus: activity

## COc1c(CC(C)O)c2c3c(CC(C)O)c(OC)c(=O)c4c(O)cc5c(c6c(cc(O)c(c1=O)c62)OCO5)c43 (stereo not drawn) [compound 7, cercosporin]
[1]; [29]
  MIC: > 60 µM
[2]; [30]
  MIC: > 60 µM
[4]; [31]
  MIC: > 60 µM
[10]
  CC50: 25.3 µM
[5]; [32]
  MIC: > 60 µM
[21]
  haemolytic activity: not haemolytic
[6]; [33]
  MIC: > 60 µM
[7]; MRSA
  activity against MRSA: potent activity
[7]; [34]
  MIC: ≤ 0.47 µM
[17]
  HC10: >60 µM
[8]; [35]
  MIC: > 60 µM

— PMC9920077, “Antimicrobial Natural Products from Plant Pathogenic Fungi” (Molecules, 2023)
